Assay results published in patent US9988348B1, “Synthesis and antimicrobial use of a trithiocarbonate derivative” (KING SAUD UNIVERSITY, priority 2017, dated 2018).
Marks after values point to notes of the source that are not given here.

Tests used:
C. albicans = test: in vivo antifungal activity, candidemia in mice infected with C. albicans; set-up: species or system Albino male mice; Total Protein Mean ± SE: unit not given here; conditions: for daily body weight / % change in daily body weight / Food consumption / Mortality / Water consumption: oral 12 mg/kg then 6 mg/ml
Experimental: To confirm that the water soluble form of the compound 4 has a biological activity as a novel antimicrobial agent, effectiveness of the compound 4 as a drug to treat candidemia in mice was investigated. The experiment was performed in Experimental Animal Care Center (EACC), College of Pharmacy, King Saud University, Riyadh. Fifty Albino male mice, weighing nearly 30±2 gram were used. The mice were arranged in five groups, each including ten mice caged together, given water, and feed ad libitum. Negative control and control group were infected intravenously with 0.2 ml of C. albicans suspension (10^6 CFU/mouse) and 0.2 ml of sterile normal saline (0.89% Nacl) respectively. The group treated with standard drug (fluconazole) was infected intravenously with 0.2 ml of C. albicans suspension (10^6 CFU/mouse) and treated (orally) by 12 mg/kg of fluconazole (loading dose) on the first day followed by 6 mg/ml for 2 weeks. The group treated with the investigated compound 4 was infected intravenously with C. albicans at 10^6 CFU/mouse (0.2 ml) and treated (orally) by 12 mg/kg of the compound 4 (loading dose) on the first day followed by 6 mg/ml for 2 weeks. To study the biological effects of compound 4, a fifth group was designed. In this group the mice were treated intravenously (I. V) with 12 mg/kg of the compound 4 on the first day followed by 6 mg/ml for 2 weeks. All doses of the standard drug and compound 4 were given twice daily.
The effectiveness of the previous treatments on some biological concepts were evaluated. The biological parameters included daily body weight (gm), mortality (%), food consumption (g/day/mouse), water consumption (ml/day/mouse), serum glutamic oxaloacetic transaminase [SGOT(AST) (U/L)], serum glutamic-pyruvic transaminase [SGPT(ALT)(U/L)], alkaline phosphatase (U/L), gamma-glutamyl transferase (GGT) (U/L), bilirubin (mg/dl)], cholesterol (mg/dl), triglycerides (mg/dl), high-density lipoprotein (HDL) (mg/dl), very-low-density lipoprotein (VLDL) (mg/dl), low-density lipoprotein (LDL) (mg/dl), lactate dehydrogenase (LDH) (U/L), glucose (mg/dl), total protein (mg/dl), malondialdehyde (MDA) (nmol/g), nonprotein sulfyhydryl (NP-SH) (nmol/g). Addition hematologic constituents including white blood cells (WBC) (cell/mm^3), red blood cells (RBC) (10^6/mm^3), hemoglobin (HGB) (g/dL), HCT, Platelets (PLT) (10^3/mm^3), mean corpuscular volume (MCV) (fL), mean corpuscular hemoglobin (MCH) (pg), mean corpuscular hemoglobin concentration (MCHC) (g/dL), neutrophils (%), lymphocytes (%), eosinophils (%) and monocytes (%)] were evaluated (Classics Lowry et al. 1951; Utley et al. 1967; Sedlak et al. 1968). SGOT (AST), SGPT (ALT), ALP, GGT, bilirubin LDH and total protein were estimated using Reflotron Plus Analyzer and Roche kits (Roche Diagnostics GmbH, Mannheim Germany) and United diagnostic kits assay. Hematological tests were performed by Mindray BC-2800VET auto Hematology Analyzer.

[1] = system: Neisseria meningitides ATCC 1302; test: disk diffusion assay, inhibition zone; assay type: cell-based; conditions: N. meningitides
[2] = C. albicans-infected mice, day 1
[3] = C. albicans-infected mice, day 2
[4] = C. albicans-infected mice, day 3
[5] = C. albicans-infected mice, day 4
[6] = C. albicans-infected mice, day 5
[7] = C. albicans-infected mice, day 6
[8] = C. albicans-infected mice, day 7
[9] = C. albicans-infected mice, day 8
[10] = C. albicans-infected mice, day 9
[11] = C. albicans-infected mice, day 10
[12] = C. albicans-infected mice, day 11
[13] = C. albicans-infected mice, day 12
[14] = C. albicans-infected mice, day 13
[15] = C. albicans-infected mice, day 14
[16] = C. albicans-infected mice, day 15
[17] = blood, C. albicans-infected mice, oral 12 mg/kg then 6 mg/ml for 2 weeks
[18] = liver tissue, C. albicans-infected mice, oral 12 mg/kg then 6 mg/ml for 2 weeks
[19] = serum, C. albicans-infected mice, oral 12 mg/kg then 6 mg/ml for 2 weeks

In the case of `CCOC(=O)CSC(=S)SCC(=O)OCC` [Compound 4, diethyl 2,2′-(thiocarbonylbis(sulfanediyl))diacetate], the daily body weight (C. albicans; C. albicans-infected mice, day 0) is reported as 21.00 ± 0.36 gm, the “% change in daily body weight” value (C. albicans; [2]) is reported as 2.38% and the Food consumption (C. albicans; [2]) is reported as 4.5 g/day/mice. For the same compound, the Mortality (C. albicans; [2]) was 0%, the Water consumption (C. albicans; [2]) was 4.5 g/day/mice and the daily body weight (C. albicans; [2]) was 21.50 ± 0.26 gm. The “% change in daily body weight” value (C. albicans; [3]) was 4.76%, the Food consumption (C. albicans; [3]) was 4.6 g/day/mice and the Mortality (C. albicans; [3]) was 0%. The Water consumption (C. albicans; [3]) was 4.5 g/day/mice, the daily body weight (C. albicans; [3]) was 22.00 ± 0.25 gm and the “% change in daily body weight” value (C. albicans; [4]) was 6.19%. For the same compound, the Food consumption (C. albicans; [4]) was 4.7 g/day/mice, the Mortality (C. albicans; [4]) was 0% and the Water consumption (C. albicans; [4]) was 4.7 g/day/mice. The daily body weight (C. albicans; [4]) was 22.3 ± 0.21 gm, the “% change in daily body weight” value (C. albicans; [5]) was 9.04% and the Food consumption (C. albicans; [5]) was 4.9 g/day/mice. It also gave a Mortality (C. albicans; [5]) of 0%, a Water consumption (C. albicans; [5]) of 4.9 g/day/mice and a daily body weight (C. albicans; [5]) of 22.90 ± 0.27 gm. The “% change in daily body weight” value (C. albicans; [6]) was 12.16%, the Food consumption (C. albicans; [6]) was 4.00 g/day/mice and the Mortality (C. albicans; [6]) was 10%. For the same compound, the Water consumption (C. albicans; [6]) was 4.2 g/day/mice, the daily body weight (C. albicans; [6]) was 23.55 ± 0.37 gm and the “% change in daily body weight” value (C. albicans; [7]) was 15.34%. It also gave a Food consumption (C. albicans; [7]) of 4.2 g/day/mice, a Mortality (C. albicans; [7]) of 10% and a Water consumption (C. albicans; [7]) of 4.6 g/day/mice. The daily body weight (C. albicans; [7]) was 24.22 ± 0.32 gm, the “% change in daily body weight” value (C. albicans; [8]) was 17.46% and the Food consumption (C. albicans; [8]) was 4.2 g/day/mice. For the same compound, the Mortality (C. albicans; [8]) was 10%, the Water consumption (C. albicans; [8]) was 5.7 g/day/mice and the daily body weight (C. albicans; [8]) was 24.66 ± 0.23 gm. For the same compound, the “% change in daily body weight” value (C. albicans; [9]) was 18.45%, the Food consumption (C. albicans; [9]) was 4.3 g/day/mice and the Mortality (C. albicans; [9]) was 20%. For the same compound, the Water consumption (C. albicans; [9]) was 4.6 g/day/mice, the daily body weight (C. albicans; [9]) was 24.87 ± 0.29 gm and the “% change in daily body weight” value (C. albicans; [10]) was 20.23%. It also gave a Food consumption (C. albicans; [10]) of 4.5 g/day/mice, a Mortality (C. albicans; [10]) of 20% and a Water consumption (C. albicans; [10]) of 4.6 g/day/mice. For the same compound, the daily body weight (C. albicans; [10]) was 25.25 ± 0.25 gm, the “% change in daily body weight” value (C. albicans; [11]) was 20.83% and the Food consumption (C. albicans; [11]) was 4.5 g/day/mice. For the same compound, the Mortality (C. albicans; [11]) was 20%, the Water consumption (C. albicans; [11]) was 4.8 g/day/mice and the daily body weight (C. albicans; [11]) was 25.37 ± 0.26 gm. The “% change in daily body weight” value (C. albicans; [12]) was 24.48%, the Food consumption (C. albicans; [12]) was 4.7 g/day/mice and the Mortality (C. albicans; [12]) was 30%. For the same compound, the Water consumption (C. albicans; [12]) was 5.1 g/day/mice, the daily body weight (C. albicans; [12]) was 26.14 ± 0.26 gm and the “% change in daily body weight” value (C. albicans; [13]) was 25.17%. The Food consumption (C. albicans; [13]) was 5.0 g/day/mice, the Mortality (C. albicans; [13]) was 30% and the Water consumption (C. albicans; [13]) was 5.4 g/day/mice. For the same compound, the daily body weight (C. albicans; [13]) was 26.28 ± 0.28 gm, the “% change in daily body weight” value (C. albicans; [14]) was 29.93% and the Food consumption (C. albicans; [14]) was 5.14 g/day/mice. It also gave a Mortality (C. albicans; [14]) of 30%, a Water consumption (C. albicans; [14]) of 5.5 g/day/mice and a daily body weight (C. albicans; [14]) of 27.28 ± 0.28 gm. The “% change in daily body weight” value (C. albicans; [15]) was 34.92%, the Food consumption (C. albicans; [15]) was 5.3 g/day/mice and the Mortality (C. albicans; [15]) was 30%. The Water consumption (C. albicans; [15]) was 5.5 g/day/mice, the daily body weight (C. albicans; [15]) was 28.33 ± 0.49 gm and the “% change in daily body weight” value (C. albicans; [16]) was 36.50%. It also gave a Food consumption (C. albicans; [16]) of 5.5 g/day/mice, a Mortality (C. albicans; [16]) of 30% and a Water consumption (C. albicans; [16]) of 5.8 g/day/mice. The daily body weight (C. albicans; [16]) was 28.66 ± 0.33 gm, the “Eosinophils Mean ± SE” value (C. albicans; [17]) was 1.30 ± 0.02% and the “HCT Mean ± SE” value (C. albicans; [17]) was 31.3 ± 0.42. The “HGB Mean ± SE” value (C. albicans; [17]) was 9.8 ± 0.14 g/dL, the “Lymphocytes Mean ± SE” value (C. albicans; [17]) was 7.10 ± 0.07% and the “MCH Mean ± SE” value (C. albicans; [17]) was 26.3 ± 0.5 pg. The “MCHC Mean ± SE” value (C. albicans; [17]) was 23.4 ± 1.0 g/dL, the “MCV Mean ± SE” value (C. albicans; [17]) was 53.7 ± 2.0 fL and the “Monocytes Mean ± SE” value (C. albicans; [17]) was 0.88 ± 0.07^b %. The “Neutrophils Mean ± SE” value (C. albicans; [17]) was 24.1 ± 0.2%, the “PLT Mean ± SE” value (C. albicans; [17]) was 522.3 ± 10.1 10^3/mm^3 and the “RBC Mean ± SE” value (C. albicans; [17]) was 6.16 ± 0.1 10^6/mm^3. The “WBC Mean ± SE” value (C. albicans; [17]) was 7540.8 ± 87.3 Cell/mm^3, the “effect on mortality caused by C. albicans, in words” value (C. albicans; dose of 800 mg as the loading dose, followed by 400 mg/d for 2 week) was “reduced the mortality” and the MDA (C. albicans; [18]) was 4.57 ± 0.25***^b nmol/g. For the same compound, the “Total Protein” value (C. albicans; [18]) was 77.84 ± 2.37**^b g/l, the “Alkaline phosphatase Mean ± SE” value (C. albicans; [19]) was 354.66 ± 5.57 U/L and the “Bilirubin Mean ± SE” value (C. albicans; [19]) was 1.15 ± 0.03 mg/dL. For the same compound, the “Cholesterol Mean ± SE” value (C. albicans; [19]) was 159.8 ± 3.4 mg/dL, the “GGT Mean ± SE” value (C. albicans; [19]) was 7.18 ± 0.20 U/L and the “Glucose level Mean ± SE” value (C. albicans; [19]) was 166.83 ± 4.32**^b mg/dl. For the same compound, the “HDL Mean ± SE” value (C. albicans; [19]) was 26.9 ± 1.1 mg/dL, the “LDH Mean ± SE” value (C. albicans; [19]) was 220.98 ± 3.96**^b U/L and the “LDL Mean ± SE” value (C. albicans; [19]) was 105.9 ± 4.6 mg/dL. The “SGOT(AST) Mean ± SE” value (C. albicans; [19]) was 169.33 ± 2.69 U/L, the “SGPT(ALT) Mean ± SE” value (C. albicans; [19]) was 83.50 ± 2.35 U/L and the “Total Protein Mean ± SE” value (C. albicans; [19]) was 4.91 ± 0.09. For the same compound, the “Triglycerides Mean ± SE” value (C. albicans; [19]) was 134.8 ± 3.8 mg/dL, the “VLDL Mean ± SE” value (C. albicans; [19]) was 26.9 ± 0.7 mg/dL and the “biological activity, in words” value [1] was “very good”. For the same compound, the Inhibition zone diameter ([1]; 4 mg/disk, soluble water compound 4) was 22.6 ± 0.5 C mm.
